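Five compound concentrations were applied to cells in 96-well plates for 48 hours; endpoints were derived by simple linear interpolation of the resulting dose-response curve. The concentration for 50% growth inhibition is given as GI50.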 Calls of active or inactive are those of the source. Rule as the data show it: active = GI50 up to about 1.1 µM and inactive = higher.
Assays:
Assay in all cases: DTP human tumour cell line panel, 48 h
786-0 = tested on: 786-0
A498 = tested on: A498
ACHN = tested on: ACHN
BT-549 = tested on: BT-549
CCRF-CEM = tested on: CCRF-CEM
COLO 205 = tested on: COLO 205
DU-145 = tested on: DU-145
HCC 2998 = tested on: HCC 2998
HCT-116 = tested on: HCT-116
HCT-15 = tested on: HCT-15
HL-60 = tested on: HL-60
HOP-62 = tested on: HOP-62
HOP-92 = tested on: HOP-92
HT-29 = tested on: HT-29
Hs-578T = tested on: Hs-578T
IGROV-1 = tested on: IGROV-1
K562 = tested on: K562
KM12 = tested on: KM12
LOX IMVI = tested on: LOX IMVI
M14 = tested on: M14
MCF7 = tested on: MCF7
MDA-MB-231 = tested on: MDA-MB-231
MDA-MB-435 = tested on: MDA-MB-435
MDA-N = tested on: MDA-N
MOLT-4 = tested on: MOLT-4
Malme-3M = tested on: Malme-3M
NCI-H226 = tested on: NCI-H226
NCI-H23 = tested on: NCI-H23
NCI-H460 = tested on: NCI-H460
NCI-H522 = tested on: NCI-H522
NCI/ADR-RES = tested on: NCI/ADR-RES
OVCAR-3 = tested on: OVCAR-3
OVCAR-4 = tested on: OVCAR-4
OVCAR-5 = tested on: OVCAR-5
OVCAR-8 = tested on: OVCAR-8
PC-3 = tested on: PC-3
RPMI-8226 = tested on: RPMI-8226
RXF 393 = tested on: RXF 393
SF-268 = tested on: SF-268
SF-295 = tested on: SF-295
SK-MEL-28 = tested on: SK-MEL-28
SK-OV-3 = tested on: SK-OV-3
SN12C = tested on: SN12C
SNB-19 = tested on: SNB-19
SNB-75 = tested on: SNB-75
SR = tested on: SR
SW-620 = tested on: SW-620
T47D = tested on: T47D
TK-10 = tested on: TK-10
U-251 = tested on: U-251
UACC-62 = tested on: UACC-62
UO-31 = tested on: UO-31
A549 = tested on: A549
CAKI-1 = tested on: CAKI-1
EKVX = tested on: EKVX
SF-539 = tested on: SF-539
SK-MEL-5 = tested on: SK-MEL-5
UACC-257 = tested on: UACC-257
SK-MEL-2 = tested on: SK-MEL-2

Structure (SMILES): CCOC(=O)NC(C(F)(F)F)(C(F)(F)F)P(=O)(OCC)OCC
- GI50 (786-0): 45.2 µM (inactive)
- GI50 (A498): 46.3 µM (inactive)
- GI50 (ACHN): 35.9 µM (inactive)
- GI50 (BT-549): 34 µM (inactive)
- GI50 (CCRF-CEM): 2.71 µM (inactive)
- GI50 (COLO 205): 38.6 µM (inactive)
- GI50 (DU-145): > 100 µM (inactive)
- GI50 (HCC 2998): 75.2 µM (inactive)
- GI50 (HCT-116): 31 µM (inactive)
- GI50 (HCT-15): 28.8 µM
- GI50 (HL-60): 65.2 µM (inactive)
- GI50 (HOP-62): 78.9 µM (inactive)
- GI50 (HOP-92): 81.7 µM (inactive)
- GI50 (HT-29): 27.5 µM (inactive)
- GI50 (Hs-578T): 16.9 µM (inactive)
- GI50 (IGROV-1): 40.6 µM (inactive)
- GI50 (K562): 10.9 µM (inactive)
- GI50 (KM12): 43.9 µM (inactive)
- GI50 (LOX IMVI): 12.4 µM (inactive)
- GI50 (M14): 25.9 µM (inactive)
- GI50 (MCF7): 75.2 µM (inactive)
- GI50 (MDA-MB-231): > 100 µM (inactive)
- GI50 (MDA-MB-435): 44.1 µM (inactive)
- GI50 (MDA-N): 29.2 µM (inactive)
- GI50 (MOLT-4): 4.11 µM (inactive)
- GI50 (Malme-3M): 28.3 µM (inactive)
- GI50 (NCI-H226): 54.1 µM (inactive)
- GI50 (NCI-H23): 34.5 µM (inactive)
- GI50 (NCI-H460): 31.7 µM (inactive)
- GI50 (NCI-H522): 17.4 µM (inactive)
- GI50 (NCI/ADR-RES): 36.7 µM (inactive)
- GI50 (OVCAR-3): 45.2 µM (inactive)
- GI50 (OVCAR-4): 18.7 µM (inactive)
- GI50 (OVCAR-5): 57.1 µM (inactive)
- GI50 (OVCAR-8): 36.6 µM (inactive)
- GI50 (PC-3): 22.8 µM (inactive)
- GI50 (RPMI-8226): 24 µM (inactive)
- GI50 (RXF 393): 11.9 µM (inactive)
- GI50 (SF-268): 42.6 µM (inactive)
- GI50 (SF-295): 51.2 µM (inactive)
- GI50 (SK-MEL-28): 43.4 µM (inactive)
- GI50 (SK-OV-3): 34.9 µM (inactive)
- GI50 (SN12C): 32.8 µM (inactive)
- GI50 (SNB-19): 36.1 µM (inactive)
- GI50 (SNB-75): 19.9 µM (inactive)
- GI50 (SR): > 10 µM (inactive)
- GI50 (SW-620): 17.9 µM (inactive)
- GI50 (T47D): 42.1 µM (inactive)
- GI50 (TK-10): 82 µM (inactive)
- GI50 (U-251): 23.3 µM (inactive)
- GI50 (UACC-62): 28 µM (inactive)
- GI50 (UO-31): 24.3 µM (inactive)

Structure (SMILES): O=[N+]([O-])c1cccc([N+](=O)[O-])c1S(=O)(=O)c1ccccc1
- GI50 (786-0): 2.09 µM (inactive)
- GI50 (A498): 18.8 µM (inactive)
- GI50 (A549): 19.8 µM (inactive)
- GI50 (ACHN): 2.17 µM (inactive)
- GI50 (BT-549): 3.08 µM (inactive)
- GI50 (CAKI-1): 2.04 µM (inactive)
- GI50 (CCRF-CEM): < 0.01 µM (active)
- GI50 (COLO 205): 6.18 µM (inactive)
- GI50 (DU-145): 6.05 µM (inactive)
- GI50 (EKVX): 21.2 µM (inactive)
- GI50 (HCT-116): 1.89 µM (inactive)
- GI50 (HCT-15): 1.92 µM
- GI50 (HL-60): 2.71 µM (inactive)
- GI50 (HOP-62): 19.9 µM (inactive)
- GI50 (HOP-92): 3.76 µM (inactive)
- GI50 (HT-29): 7.67 µM (inactive)
- GI50 (Hs-578T): 20.8 µM (inactive)
- GI50 (IGROV-1): 1.89 µM (inactive)
- GI50 (KM12): 16.1 µM (inactive)
- GI50 (LOX IMVI): 1.84 µM (inactive)
- GI50 (M14): 2.27 µM (inactive)
- GI50 (MCF7): 5.87 µM (inactive)
- GI50 (MDA-MB-231): 18.2 µM (inactive)
- GI50 (MDA-MB-435): 3.61 µM (inactive)
- GI50 (MDA-N): 5.51 µM (inactive)
- GI50 (MOLT-4): 3.38 µM (inactive)
- GI50 (Malme-3M): 2.28 µM (inactive)
- GI50 (NCI-H226): 12.2 µM (inactive)
- GI50 (NCI-H23): 21.3 µM (inactive)
- GI50 (NCI-H460): 21.7 µM (inactive)
- GI50 (NCI/ADR-RES): 6.24 µM (inactive)
- GI50 (OVCAR-3): 2.49 µM (inactive)
- GI50 (OVCAR-5): 3.66 µM (inactive)
- GI50 (OVCAR-8): 2.48 µM (inactive)
- GI50 (PC-3): 11.9 µM (inactive)
- GI50 (RPMI-8226): 1.46 µM (inactive)
- GI50 (SF-268): 12.2 µM (inactive)
- GI50 (SF-295): 16.4 µM (inactive)
- GI50 (SF-539): 15.8 µM (inactive)
- GI50 (SK-MEL-28): 4.16 µM (inactive)
- GI50 (SK-MEL-5): 14.1 µM (inactive)
- GI50 (SK-OV-3): 16.8 µM (inactive)
- GI50 (SN12C): 3.83 µM (inactive)
- GI50 (SNB-19): 18.3 µM (inactive)
- GI50 (SR): 1.63 µM (inactive)
- GI50 (SW-620): 2.55 µM (inactive)
- GI50 (T47D): 2.13 µM (inactive)
- GI50 (TK-10): 16 µM (inactive)
- GI50 (U-251): 8.95 µM (inactive)
- GI50 (UACC-257): 13.2 µM (inactive)
- GI50 (UO-31): 1.86 µM (inactive)

Structure (SMILES): O=CNc1ccc(S(=O)(=O)c2ccc(NC=O)cc2)cc1
- GI50 (786-0): > 100 µM (inactive)
- GI50 (A549): > 100 µM (inactive)
- GI50 (ACHN): > 100 µM (inactive)
- GI50 (BT-549): > 100 µM (inactive)
- GI50 (CAKI-1): > 100 µM (inactive)
- GI50 (CCRF-CEM): > 100 µM (inactive)
- GI50 (COLO 205): > 100 µM (inactive)
- GI50 (DU-145): > 100 µM (inactive)
- GI50 (EKVX): > 100 µM (inactive)
- GI50 (HCC 2998): > 100 µM (inactive)
- GI50 (HCT-116): > 100 µM (inactive)
- GI50 (HCT-15): > 100 µM
- GI50 (HL-60): > 100 µM (inactive)
- GI50 (HOP-62): > 100 µM (inactive)
- GI50 (HOP-92): > 100 µM (inactive)
- GI50 (HT-29): > 100 µM (inactive)
- GI50 (Hs-578T): > 100 µM (inactive)
- GI50 (IGROV-1): > 100 µM (inactive)
- GI50 (K562): > 100 µM (inactive)
- GI50 (KM12): > 100 µM (inactive)
- GI50 (LOX IMVI): > 100 µM (inactive)
- GI50 (M14): > 100 µM (inactive)
- GI50 (MCF7): > 100 µM (inactive)
- GI50 (MDA-MB-231): > 100 µM (inactive)
- GI50 (MDA-MB-435): > 100 µM (inactive)
- GI50 (MDA-N): > 100 µM (inactive)
- GI50 (MOLT-4): > 100 µM (inactive)
- GI50 (Malme-3M): > 100 µM (inactive)
- GI50 (NCI-H23): > 100 µM (inactive)
- GI50 (NCI-H460): > 100 µM (inactive)
- GI50 (NCI-H522): > 100 µM (inactive)
- GI50 (NCI/ADR-RES): > 100 µM (inactive)
- GI50 (OVCAR-3): > 100 µM (inactive)
- GI50 (OVCAR-4): > 100 µM (inactive)
- GI50 (OVCAR-5): > 100 µM (inactive)
- GI50 (OVCAR-8): > 100 µM (inactive)
- GI50 (PC-3): > 100 µM (inactive)
- GI50 (RPMI-8226): > 100 µM (inactive)
- GI50 (SF-268): > 100 µM (inactive)
- GI50 (SF-295): > 100 µM (inactive)
- GI50 (SF-539): > 100 µM (inactive)
- GI50 (SK-MEL-28): > 100 µM (inactive)
- GI50 (SK-MEL-2): > 100 µM (inactive)
- GI50 (SK-MEL-5): > 100 µM (inactive)
- GI50 (SK-OV-3): > 100 µM (inactive)
- GI50 (SN12C): > 100 µM (inactive)
- GI50 (SNB-19): > 100 µM (inactive)
- GI50 (SNB-75): 29.7 µM (inactive)
- GI50 (SR): > 100 µM (inactive)
- GI50 (SW-620): > 100 µM (inactive)
- GI50 (T47D): > 100 µM (inactive)
- GI50 (TK-10): > 100 µM (inactive)
- GI50 (U-251): > 100 µM (inactive)
- GI50 (UACC-257): > 100 µM (inactive)
- GI50 (UACC-62): > 100 µM (inactive)
- GI50 (UO-31): > 100 µM (inactive)

Reference: ChEMBL document CHEMBL1201862, “PubChem BioAssay data set” (2004)
